According to patent US20230192617A1, “AZABICYCLIC(THIO)AMIDES AS FUNGICIDAL COMPOUNDS” (Bayer CropScience Aktiengesellschaft, priority 2020, published 2023):

Assays:
[1] = test system: Colletotrichum lindemuthianum; experiment: B-8. Colletotrichum lindemuthianum in vitro cell test; assay type: cell-based; settings: 144 h, 20 ppm of active ingredient, 6 days incubation, liquid culture, absorbance, read-out: efficacy (inhibition of fungal growth)
Outline: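 Spore suspension of C. lindemuthianum in liquid medium exposed to DMSO-solubilized compounds (final DMSO ≤1%) for 6 days. Mycelial growth read by absorbance, with inhibition calculated relative to compound-free control wells.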

[2] = test system: Alternaria brassicae; experiment: In vivo preventive test on Alternaria brassicae (leaf spot on radish or cabbage); settings: 500 ppm of active ingredient, preventive spray on radish or cabbage, evaluated 3 to 4 days after inoculation, read-out: efficacy
Outline: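 Young radish or cabbage plants were sprayed with compound dissolved in DMSO/acetone/Tween 80 and diluted in water; controls received solvent only. Inoculation by spraying A. brassicae spore suspension 24 h later, then 3–4 days at 20 °C and 100% relative humidity.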

[3] = test system: Colletotrichum lindemuthianum; experiment: In vivo preventive test on Colletotrichum lindemuthianum (leaf spot on bean); settings: 168 h, 500 ppm of active ingredient, preventive spray on bean, evaluated 7 days after inoculation, read-out: efficacy
Outline: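 Young bean plants sprayed with compound in DMSO/acetone/Tween 80 diluted in water; solvent-only controls. Inoculated 24 h later with C. lindemuthianum spore suspension, then kept 24 h at 20 °C/100% RH and 6 days at 20 °C/90% RH.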

[4] = test system: Sphaerotheca fuliginea; experiment: In vivo preventive test on Sphaerotheca fuliginea (powdery mildew on cucurbits); settings: Podosphaera fuliginea, 192 h; 500 ppm of active ingredient; preventive spray on gherkin; evaluated 8 days after inoculation; read-out: efficacy
Outline: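 Young gherkin plants were sprayed with compound in DMSO/acetone/Tween 80 diluted in water. They were inoculated 24 h later with a spore suspension of Sphaerotheca fuliginea. Plants were then kept for 8 days at 20 °C and 70–80% relative humidity.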

[5] = test system: Pyrenophora teres; experiment: B-10. Pyrenophora teres in vitro cell test; assay type: cell-based; settings: 144 h, 20 ppm of active ingredient, 6 days incubation, liquid culture, absorbance, read-out: efficacy (inhibition of fungal growth)
Outline: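 Liquid-culture assay on a P. teres spore suspension with compounds added to the medium from DMSO solutions, final DMSO ≤1%. Mycelium growth read spectrometrically after 6 days. Inhibition calculated from absorbance against untreated control wells.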

[6] = test system: Alternaria alternata; experiment: Alternaria alternata in vitro cell test; assay type: cell-based; settings: 120 h, 20 ppm of active ingredient, liquid culture, 5 days incubation, spectrometric measurement of mycelium growth, read-out: efficacy (inhibition of fungal growth)
Outline: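 Liquid culture assay in which A. alternata spores in medium received DMSO-solubilized compound (final DMSO ≤1%). After 5 days, mycelium growth was measured spectrometrically. Inhibition was calculated against fungicide-free control wells.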

[7] = test system: Botrytis cinerea; experiment: B-11. Botrytis cinerea in vitro cell test; assay type: cell-based; settings: 144 h, 20 ppm of active ingredient, 6 days incubation, liquid culture, absorbance, read-out: efficacy (inhibition of fungal growth)
Outline: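 B. cinerea spores were grown in liquid culture with compound (DMSO ≤1% final). Mycelium growth was measured spectrometrically after 6 days, with inhibition taken as absorbance relative to untreated control wells.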

[8] = Measurement of Log P values by HPLC on reversed phase columns (EEC directive 79/831 Annex V.A8); assay type: physicochemical; settings: reversed phase HPLC column, method [a]: LC-UV, acidic range, 0.1% formic acid in water and acetonitrile as eluent
Outline: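 Reversed-phase HPLC with UV detection per EEC 79/831 Annex V.A8, linear 10–95% acetonitrile gradient. Aqueous eluent: 0.1% formic acid (acidic), 0.001 M ammonium acetate (neutral), or 0.1% phosphoric acid (acidic); multiple values in one method joined by "+".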

[9] = test system: Septoria tritici; experiment: B-9. Septoria tritici in vitro cell test; assay type: cell-based; settings: Zymoseptoria tritici, 168 h; 20 ppm of active ingredient; 7 days incubation; liquid culture, absorbance; read-out: efficacy (inhibition of fungal growth)
Outline: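 Compounds from DMSO stocks (final DMSO ≤1%) were added to liquid medium containing S. tritici spores to test inhibition of germination and mycelial growth. After 7 days, mycelium growth was read spectrometrically and inhibition derived from absorbance versus fungicide-free control wells.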

[10] = test system: Pyrenophora teres; experiment: In vivo preventive test on Pyrenophora teres (net blotch on barley); settings: 240 h, 500 ppm of active ingredient, preventive spray on barley, evaluated 10 days after inoculation, read-out: efficacy
Outline: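 Young barley plants sprayed preventively with compound formulated in DMSO/acetone/Tween 80 and diluted in water; controls got solvent only. Inoculated 24 hours later with P. teres spore suspension, then held 48 hours at 20° C, 100% RH and 8 days at 20° C, 70-80% RH.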

[11] = test system: Botrytis cinerea; experiment: In vivo preventive test on Botrytis cinerea (grey mould); settings: 500 ppm of active ingredient, preventive spray on gherkin or cabbage, evaluated 4 to 5 days after inoculation, read-out: efficacy
Outline: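 Young gherkin or cabbage plants were sprayed with compound in DMSO/acetone/Tween 80 diluted in water, then inoculated 24 hours later with a B. cinerea spore suspension. Incubation lasted 4 to 5 days: gherkin at 17° C., 90% relative humidity; cabbage at 20° C., 100% relative humidity.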

| Structure (SMILES) | inhibition at 20 ppm [1] [%] | pest or weed control at 500 ppm [2] [%] | pest or weed control at 500 ppm [3] [%] | pest or weed control at 500 ppm [4] [%] | inhibition at 20 ppm [5] [%] | inhibition at 20 ppm [6] [%] | inhibition at 20 ppm [7] [%] | chromatographic logP [8] | inhibition at 20 ppm [9] [%] | pest or weed control at 500 ppm [10] [%] | pest or weed control at 500 ppm [11] [%] |
| --- | --- | --- | --- | --- | --- | --- | --- | --- | --- | --- | --- |
| Cc1ccc([C@@H](F)CNC(=O)c2c(Oc3cccc(C(F)(F)F)c3)nnc3c2OCC(C)(C)O3)c(C)c1 (racemic) [I-155] | 90 to 100 | 90 to 100 | 90 to 100 | 90 to 100 | 90 to 100 | 90 to 100 | 90 to 100 | 3.91 | 90 to 100 | 90 to 100 |  |
| O=C(NC[C@H](F)c1ccc(Cl)cc1Cl)c1c(Oc2cccc(C(F)(F)F)c2)nnc2ccccc12 (racemic) [I-219] |  | 90 to 100 | 90 to 100 | 90 to 100 | 70 to 79 | 80 to 89 | 90 to 100 | 4.55 | 80 to 89 | 90 to 100 | 90 to 100 |
| Cc1cc(Cl)ccc1C(F)(F)CNC(=O)c1c(Oc2cccc(C(F)(F)F)c2)nnc2c1COCC2 [I-125] |  | 90 to 100 | 80 to 89 | 90 to 100 | 90 to 100 | 90 to 100 | 90 to 100 | 3.85 | 90 to 100 | 70 to 79 | 90 to 100 |
| Cc1cc(Br)ccc1C(F)(F)CNC(=O)c1c(Oc2cccc(C3CC3)c2F)nnc2c1CCCC2 [I-153] | 90 to 100 | 90 to 100 | 90 to 100 | 90 to 100 | 90 to 100 | 90 to 100 | 90 to 100 |  | 90 to 100 | 90 to 100 |  |
| Cc1cc(Br)ccc1C(F)(F)CNC(=O)c1c(Oc2cccc(Cl)c2F)nnc2c1CCC2 [I-154] | 90 to 100 | 90 to 100 | 90 to 100 | 90 to 100 | 90 to 100 | 90 to 100 | 90 to 100 | 4.11 | 90 to 100 | 90 to 100 |  |
| Cc1ccc(CCNC(=O)c2c(Oc3cccc(C(F)(F)F)c3)cnc3c2CCC3)c(C)c1 [I-157] | 90 to 100 | 90 to 100 | 90 to 100 | 90 to 100 | 90 to 100 | 90 to 100 | 90 to 100 | 4.23 | 90 to 100 | 90 to 100 |  |
| Cc1cc(Cl)ccc1C(F)(F)CNC(=O)c1c(Oc2cccc(C(F)(F)F)c2)nnc2c1CCC2 [I-164] | 90 to 100 | 90 to 100 | 90 to 100 | 90 to 100 | 90 to 100 | 90 to 100 | 90 to 100 | 4.11 | 90 to 100 | 90 to 100 |  |
| O=C(NCC(F)c1ccc(Cl)cc1Cl)c1c(Oc2cccc(C3CC3)c2F)nnc2c1CCCC2 (stereo not shown) [I-184] | 90 to 100 | 90 to 100 | 90 to 100 | 90 to 100 | 90 to 100 | 90 to 100 | 90 to 100 | 4.17 | 90 to 100 | 90 to 100 |  |
